The nature of this data set: molar enthalpy of vaporization or sublimation. Conditions: Calvet microcalorimetry.

Experimental findings from the NIST ThermoML archive (doi:10.1016/j.jct.2009.04.017) are described below.

SMILES strings stand for the structures. ± gives the expanded uncertainty stated by the source.

As for `Oc1ccccc1Br` [phenol, 2-bromo-], the molar enthalpy came to 13.3 ± 0.621 kcal/mol (298.15 K, Liquid) and 13.3 ± 0.621 kcal/mol (329.2 K, Liquid).
In the case of `Oc1ccc(Br)cc1` [4-bromophenol], the molar enthalpy (298.15 K, Crystal) was 19.9 ± 0.765 kcal/mol.
